Series [1] addresses MC4R D122S, N-terminally HA-tagged (human) (UniProt P32245).
Series [2] deals with MC4R. The note with it: cited from earlier work. The text has this:
(Fig. 1a). The binding mode of SHU9119 is generally like that of NDP-α-MSH. […] W6^3 is also clamped by H264^6.54 (TM6) and S188^EL2, and R5^2 connects TM3−TM4 and EL2 through hydrogen bonds with S188^EL2 and I185^4.61 (Fig. 2i; Supplementary information, Fig. S11 and Table S4).

Series [3] concerns MC4R. Set-up: method as in earlier work. The note with it: ref 4 (AgRP); ref not given for MSH; cited from earlier work.
For series [4], the target named is T1, wild-type MC4R (WT) (Homo sapiens, UniProt P32245).
T1 construct: expressed in transfected cells; host or cells: HEK293 (transient, vector pcDps)
The format is cell-based. The note with it: set as 100 %, 1 µM ligand, HEK293, 40 min 37 °C, 1 mM IBMX, 4-8 experiments in triplicates.

For series [5], the target named is T2, MC4R H158A (Homo sapiens, UniProt P32245, H158A).
T2 construct: expressed in transfected cells; host or cells: HEK293 (transient, vector pcDps)
The format is cell-based.

For series [6] the following is noted: ref not given, cited from earlier work. The text has this:
In contrast to other M ...

Series [7] relates to MC1R. The note with it: cited from earlier work.
In series [8] the test system is MC5R. As to conditions: MC5R with V126; cited from earlier work.
The subject of series [9] is MC4R L133 to methionine. As to conditions: cited from earlier work.
Series [10] addresses wild-type MC4R, N-terminally HA-tagged (signalling construct) (human) (UniProt P32245).

Where two headings read alike, the source gives them in different places.

Regarding NDP-α-MSH (peptide), in series [1], the EC50 of cAMP accumulation (Gs signaling), transfected HEK293 cells came to 9 nM.

As to “agouti-related peptide (SSRRCVRLHESCLGQQVPCCDPCATCYCRFFNAFCYCRKLGTAMNPCSRT; UniProt O00253 83-132, looked up) [AgRP]”, the “mode of action at MC4R” value in series [2] (reducing high levels of basal signaling activity) is “inverse agonist”. For the same molecule, the effect on appetite entry in [3] is on record as “orexigenic effects”.

Consider `CC(=O)N[C@@H](CCCNC(=N)N)C(=O)N[C@H]1CSSC[C@@H](C(N)=O)NC(=O)[C@H](Cc2c[nH]c3ccccc23)NC(=O)[C@H](CCCNC(=N)N)NC(=O)[C@@H](Cc2ccccc2)NC(=O)[C@H](Cc2c[nH]cn2)NC(=O)[C@@H](C)NC1=O` [setmelanotide], for which the “Emax cAMP” value in series [4] is listed as 100 % of WT. Moreover, the “maximum Gq/11 signaling” value in series [5] is 50%. For the same molecule, in series [6] (in contrast to other MC4R agonists), the “Gs signaling-related adverse effects” value is on record as “does not cause common Gs signaling-related adverse effects, such as tachycardia or hypertension”. Moreover, in [6] (rare, moderate), the adverse effects entry is on record as “skin hyperpigmentation”.

Turning to β-MSH, in [3], the effect on appetite entry is recorded as “appetite-reducing effects”.

For SHU9119, in series [2] (antagonism), the “mode of action at MC4R” value was “antagonizes the MC4R”. For the same molecule, the “mode of action at MC1R” value in series [7] (MC1R with M128, 37 (ref 36)) is reported as “partial agonist”. Further, the “mode of action in MC1R–Gs complex” value in [7] (cryo-EM structure of active MC1R–Gs complex) is recorded as “acting as an agonist”. Besides, in series [8], the “mode of action at MC5R” value is reported as “partial agonist”. Also, the “mode of action at L133M mutant” value in [9] is listed as “reverses SHU9119 to an agonist”.

With setmelanotide (peptide), the potency (EC50) of cAMP accumulation, transfected HEK293 cells in series [10] was 1.2 nM.

For melanotan II, the “mode of action at MC4R” value is recorded as “agonizes MC4R” in [2] and “agonistic effects” in series [2] (listed as melatonan II).
